# According to patent US8193235B2, “Compositions and methods for establishing and maintaining stem cells in an undifferentiated state” (University of Kansas, priority 2009, dated 2012):
# Assays:
# Assay type in all cases: cell-based, mouse
# [1] = tested on: RelA and LGL1/2; test: Phosphorylation of PKC ζ target proteins in mESCs
# Experimental: Western Blot Analysis. Whole cell lysates were prepared in SDS-gel loading buffer and resolved by 10% PAGE. The antibodies used for this study included β-actin Clone AC-15 from Sigma; p-STAT3 (Tyr705), p-p44/42 MAPK (tyr202/tyr204), p44/42 MAPK, GSK3β, Phospho Akt (Ser473), Akt, p-NFκβ p65 (Ser536), c-Myc, p-c-Myc (Thr58/Ser62), p-p90RSK (Thr359/Ser363), RSK1, Suz12 (D39F6), and Ezh2 (AC22) from Cell Signaling Technology; STAT3 (C-20), Oct-4 (C-10), Nanog (M-149), PKC α (C-20), PKC βI (C-16), PKC βII (C-18), PKC γ (C-19), PKC δ (C-20), PKC ζ (c-20), p-PKC ζ (Thr 410)-R, p-NFκβ p65 (ser311), and RelA (p65) from Santa Cruz Biotechnology; p-LGL1/LGL2 (S650/S654), SSEA4and H3K4Me3 from Abcam; LGL2 (M06), clone 4G2 from Abnova; β-Catenin from BD Transduction Laboratories, and H3K27Me3 and H3K9Me3 from Millipore.
# [2] = tested on: NF-κB target genes; test: RT-PCR analysis of NF-κB target gene expression
# Experimental: Quantitative RT-PCR Analysis. RNA was extracted from different cell samples with TRIZOL reagent (Invitrogen). cDNA was prepared by annealing RNA (1 μg) with 250 ng of a 5:1 mixture of random and oligo(dT) primers heated at 68° C. for 10 minutes. This was followed by incubation with Moloney murine leukemia virus reverse transcriptase (50 units) (Invitrogen, Carlsbad, Calif.) combined with 10 mM DTT, RNasin (PROMEGA, Madison, Wis.), and 0.5 mM dNTPs at 42° C. for 1 hour. Reactions were diluted to a final volume of 100 μl and heat inactivated at 97° C. for 5 minutes. Twenty μl PCR reactions contained 2 μl cDNA, 10 μl SYBR Green Master Mix (Applied Biosystems, Foster City, Calif.) and corresponding primer sets. Relative expression levels were determined from a standard curve of serial dilutions of proliferating ES cell cDNA samples and were normalized to the expression of glyceraldehyde-3-phosphate dehydrogenase (GAPDH). At least three independent experiments were done for each set of data.
# [3] = tested on: Akt; test: Akt phosphorylation in mESCs
# Experimental: E14 ES Cell Cultures. Cells were grown in ES-IMDM media (Lonza, Walkersville, Md.) in a feeder-free condition. ES-IMDM was supplemented with 15% serum, 10^5 U/100 ml of LIF (ESGRO, Millipore, Calif.) and 0.0124% monothioglycerol (MTG; Sigma Aldrich). Cells were grown for 3-5 days with change of medium every day. For inducing differentiation in monolayer culture and to determine the effect of Gö6983 in preventing differentiation, E14 cells were cultured on gelatin-coated plastics for 8 days without LIF. Details of experiments performed at clonal-density are described herein. To maintain E14 cells with Gö6983, serum supplemented ES-IMDM was used in the presence of 5 μM Gö6983 and was passed after every 3-5 days. For all assays involving elucidation of different signaling mechanism responsible for maintenance of pluripotency, cells from a ˜70% confluent ES culture plate were washed two times with 1× phosphate-buffered saline (PBS), trypsinized and plated on a 6-well tissue culture plate and treated with or without LIF or Gö6983 or different inhibitors for ˜10 hours followed by preparation of protein lysates and RNA. The PKCζ knocked-down E14 cells that were generated in this study were maintained in serum supplemented ES-IMDM on gelatin-coated plates in the absence of Gö6983 or LIF or any other inhibitor and passed after 3-5 days. […]
# [4] = tested on: PKCζkd cells; test: PKCζkd cells cultured on collagen IV without LIF
# Text: ES Cell Differentiation on Collagen-IV and With Retinoic Acid. To differentiate ES cells in monolayer culture on collagen IV, around 3×10^4 cells per well were transferred to collagen IV-coated 6-well plates (BD Biosciences, Franklin Lakes, N.J.) cultured for 5 days in ES differentiation medium containing DMEM (Invitrogen), 15% FBS (selected for endothelial differentiation, Stem Cell Technologies, Vancouver, BC), sodium pyruvate and L-glutamine with or without LIF and Gö6983, and were recovered by cell dissociation buffer (BD Biosciences, Franklin Lakes, N.J.). For culturing multiple passages with Gö6983 on collagen-IV, the recovered cells were again plated at a density of ˜3×10^4 cells per well and cultured again for 5 days. […] For RA-induced differentiation on monolayer culture, ES cells were treated with all-trans-retinoic acid (Sigma, St. Louis, Mo.) in ethanol at a concentration of 1 μM with or without LIF and Gö6983 for 6 days followed by study of expression of pluripotency markers (by immunofluorescence or western blot or RT-PCR analysis).
# RNA Interference and Rescue of PKCζ Expression in RKCζkd Cells. Lentiviral vectors containing short hairpin RNAs (shRNAs) targeting mouse PKCζ mRNA were cloned in pLKO1 (Open Biosystems, Huntsville, Ala.). Lentiviral supernatants were produced in HEK-293T cells according to known methods (Dutta, et al. (2008) supra). […]
# [5] = tested on: NF-κB; test: NF-κB5X-Luc reporter activation; conditions: E14 cells
# Experimental: Analysis of NF-κB5X-Luc Reporter Activation. E14 ES or PKCζkd cells (2-4×10^4) were seeded on 24-well plates […]. Cells were transfected with 1 μg of plasmid ([…] NF-kB cis-Reporting System, Stratagene) in OPTI-MEM. Transfection mixture was removed after 5 hours with appropriate media. Luciferase activity was measured 24 hours post-transfection and expressed relative to total protein present in the whole cell lysate.
smiles,measurement,setting,value
"COc1ccc2c(c1)c(C1=C(c3c[nH]c4ccccc34)C(=O)NC1=O)cn2CCCN(C)C [Gö6983, 3-[1-[3-(dimethylamino)propyl]5-methoxy-1H-indol-3-yl]-4-(1H-indol-3-yl)-1H-pyrrole-2,5-dione]",phosphorylation of RelA and LGL1/2,[1],impaired
same,activation of NF-κB target gene transcription,"[2]; E14 cells, absence of LIF, FIG. 3A",inhibited their activation
same,"activation of NF-κB target genes, RelA phosphorylation and reporter Luciferase",[2]; PKCζkd cells cultured on collagen IV,inhibited the activation
same,Akt phosphorylation,[3],not associated with Akt phosphorylation
same,expression of pluripotency markers in PKCζkd cells on collagen IV,[4]; FIG. 2C,maintained the expression of pluripotency markers
same,differentiation of PKCζkd cells on collagen IV,[4]; without LIF,inhibited differentiation of PKCζkd cells
same,NFκ5x-Luc reporter gene activation,[5],strongly inhibited
